Here are results for three compounds from patent US8563690B2, “Modulation of platelet aggregation” (The Board of Trustees of the University of Illinois, priority 2008, dated 2013).

Residues, ends and D or L forms follow the SMILES beside them. *: point of attachment. Myristoyl = CCCCCCCCCCCCCC(=O)*

Assay type in all cases: cell-based, human
For data set [1], the system named is platelets. The method, then: (§1) FIG. 2A-C: Quantitative analysis of the effect of myristoylated RGT peptide on platelet stable adhesion and spreading on immobilized fibrinogen. FIG. 2A: Platelets were added to microtiter wells precoated with fibrinogen and allowed to adhere for 30 min at 37° C. The phosphatase activity in supernatants (open columns) or in adherent platelets (close columns) was quantified by a PNPP assay. Data of three experiments (means and SD) were presented as the ratio of the phosphatase activity of platelet samples over blank. The asterisks indicate peptide concentration (* 62.5 μM; ** 125 μM; *** 250 μM). […] The phosphatase activity in supernatants (open columns) or in remaining platelet suspensions (close columns) was quantified by a PNPP assay. […] For quantitative analysis of the effect of the RGT peptide on platelet adhesion, we used a phosphatase assay. […] Nonadherent platelets were removed by three vigorous washes with phosphate-buffered saline (PBS), and adherent platelets were quantified by a phosphatase assay. In addition, to monitor peptide-dependent platelet lysis, the platelet phosphatase activity was separately measured in the supernatant of the platelets in suspension or following their adhesion to fibrinogen by mixing with PNPP substrate solution (100 mM sodium acetate, 1% Triton X-100, 3 mg/ml p-nitrophenyl phosphate) for 60 min at 37° C. […]

Data set [2] deals with platelets. Briefly: Platelet stable adhesion on immobilized fibrinogen (phosphatase assay). Particulars: 62.5-250 μM. The method, then:
as §1

For a further data set, the system named is washed platelets. Briefly: Plasma-free platelet-mediated fibrin clot retraction with washed platelets. To be noted: 1 mM. The method, then:
FIG. 3A-B: Effects of myr-RGT on fibrin clot retraction and platelet aggregation. FIG. 3A: Platelets were washed and resuspended in HEPES buffer containing 2 mg/ml of human fibrinogen (see “Experimental Procedures”) and incubated with different peptides or their vehicles as indicated. Fibrin clot formation was initiated by adding 1 U/ml thrombin. Clot retraction was monitored over time and photographs of the clots were taken at different time points (lower panel). The asterisks indicate peptide concentration (* 62.5 μM; ** 125 μM; *** 250 μM). The histograms of the clot size were generated from the photographs by calculating the ratio of the surface area of the retracted clot versus that of the initial clot. […]
Platelet clot retraction is an essential step in platelet thrombus consolidation and is initiated following platelet activation as a late consequence of integrin outside-in signaling. […] Clot retraction was monitored over a 90 min time period by taking photographs at indicated time points using a digital camera. Clot retraction was quantified on the photographs by measuring the clot surface area with the NIH Image 1.67e software, and the data were processed using Excel 4.0. Results were expressed as percentage of retraction (%=area t/area t0×100%).

For the compound `CCCCCCCCCCCCCC(=O)N[C@@H](CCCNC(=N)N)C(=O)NCC(=O)N[C@H](C(=O)O)[C@@H](C)O` [myr-RGT] (Myristoyl-Arg-Gly-Thr-OH; N-terminus and C-terminus assumed), in the data set with platelets [1], the platelet lysis result was “did not induce platelet lysis”.

As to `CCCCCCCCCCCCCC(=O)O` [myristic acid, tetradecanoic acid], in the data set with platelets [2], the “effect on platelet stable adhesion on immobilized fibrinogen” value is “no significant inhibitory effect”.

For RGDS, the “inhibition of clot retraction” value with washed platelets is recorded as “inhibit clot retraction”.
